This note sets out measurements from US10172876B2, “Use of ginsenoside M1 for treating IgA nephropathy” (priority 2014, dated 2019).

In assay [1] the test system is mice model of IgA nephropathy (IgAN). Briefly: Urine protein and renal function in IgAN mice. It counts as in vivo. The protocol: (§1) B-cell-deficient mice were obtained from the Academia Sinica (Professor John T. Kung, Institute of Molecular Biology, Taipei, Taiwan) and maintained at the animal center of the National Defense Medical Center (Taipei, Taiwan). IgAN was induced by daily injection of purified IgA anti-phosphorylcholine antibodies and pneumococcal C-polysaccharide antigen (PnC). All animal experiments were performed with the approval of the Institutional Animal Care and Use Committee of the National Defense Medical Center and complied with the NIH Guide for the Care and Use of Laboratory Animals.
(§2) Ginsenoside M1, 20-O-β-D-glucopyranosyl-20(S)-protopariaxadiol (named LCHK168 below), was prepared by methods known in the art, such as those described in Taiwan Patent Application No. 094116005 (1280982) and U.S. Pat. No. 7,932,057. The mice were treated daily with 60 mg/kg LCHK168 or with the vehicle, by oral gavage throughout the experiment, the first dose being given 2 day before disease induction.
Body weight was measured weekly. Urine samples were collected in metabolic cages weekly and urine protein was determined. Serum samples were collected on days 14 and 28 to measure serum levels of blood urea nitrogen (BUN) and creatinine (Cr). For renal histopathology, the tissues were fixed in 10% buffered formalin and embedded in paraffin, and then sections (3 μm) were prepared and stained with hematoxylin and eosin (H&E). The percentage of glomeruli showing proliferation, neutrophil infiltration, sclerosis, or periglomerular inflammation was determined by counting 50 randomly sampled glomeruli by light microscopy at a magnification of 400×.

For assay [2], the system named is reactive oxygen species (ROS). Briefly: Measurement of reactive oxygen species (ROS) in renal tissue of IgAN mice. The format is in vivo. The conditions noted are these: vs disease control (FIG. 10). The protocol:
as §1
(§3) Ginsenoside M1, 20-O-β-D-glucopyranosyl-20(S)-protopariaxadiol (named LCHK168 below), was prepared by methods known in the art, such as those described in Taiwan Patent Application No. 094116005 (1280982) and U.S. Pat. No. 7,932,057. […]
To measure ROS levels in renal tissue, the samples were incubated at room temperature with Krebs-Hepes buffer containing 1.25 mM lucigenin (Sigma, St. Louis, Mo., USA) as substrate, and luminescence counts were measured in duplicate at 15-s intervals on a multilabel microplate reader (Hidex). ROS activity was expressed as relative luminescence units (RLU) per 15 minutes per milligram of organ dry weight (i.e., RLU/15 min/mg) or as RLU/15 min/ml.

Assay [3] concerns memory CD4+ T cells. Briefly: Flow cytometry of splenocytes for memory CD4+ T cells in IgAN mice. It counts as in vivo. The following applies: 60 mg/kg daily oral gavage, vs disease control (FIG. 11). The protocol: as §1, §3
Splenocytes from the mice were treated with Tris-buffered ammonium chloride to eliminate erythrocytes, washed and resuspended in RPMI1640 medium supplemented with 10% fetal calf serum, Hepes buffer, L-glutamine, and penicillin/streptomycin. The cells were triple-stained for activated T cell subtypes using FITC-conjugatedanti-mouse CD44, phycoerythrin-conjugated anti-mouse CD62 antibodies, and allophycocyanin-conjugated anti-mouse CD4 and analyzed using a FACSCalibur.
(A flow cytometer gives signals particle by particle.)

Assay [4] relates to Dendritic cells (DCs). Briefly: IgA-IC stimulated dendritic cell maturation by flow cytometry. The format is cell-based, mouse. The conditions noted are these: LCHK168 1, 2 μM, flow cytometry (FIG. 13). The protocol: (§4) Dendritic cells (DCs) maturation was determined by the upregulation of costimulatory molecule expression. Cells were treated with IgA-IC, LCHK168 (1, 2 μM) and stained with mAbs specific for mouse CD40, CD80, and CD86 and then analyzed by flow cytometry.

Assay [5] deals with NLRP3. Briefly: Western blot of NLRP3 in IgA-IC stimulated DCs. It counts as cell-based, mouse. The conditions noted are these: β-actin loading control (FIG. 14). On the procedure: as §4
Each protein sample was run on a 8% SDS-PAGE gel and the proteins were electro blotted on to a polyvinylidene difluoride membrane, which was then incubated for 1 h at room temperature in blocking buffer (Tris-buffered saline containing 5% skim milk) and then overnight at 4° C. with rabbit antibodies against NLRP3 or β-actin. After being washed, the membrane was incubated for 1 h at room temperature with HRP-conjugated goat anti-rabbit IgG antibody in the same buffer; then bound antibody was detected using UVP Biospectrum.
On the technique in general: Immunoblotting shows a protein as a band on a membrane.

The test system of assay [6] is TLR2. Briefly: Real-time RT-PCR of renal TLR2 mRNA in IgAN mice. The conditions noted are these: 60 mg/kg daily oral gavage. It counts as in vivo. On the procedure:
as §1, §2
Renal cortex RNA was extracted using TRIzol reagent according to the manufacturer's instructions, and RT-PCR was used to measure TLR2 gene expression. […] Real-time quantification was performed using a Applied Biosystems according to the manufacturer's instructions. […]
In general terms: In qPCR the cycle at which signal appears reflects the starting amount.

The subject of assay [7] is mice model of IgA nephropathy (IgAN). Briefly: IHC of renal tissue for infiltrating leukocytes and Collagen IV in IgAN mice. It counts as in vivo. The following applies: day 28, 60 mg/kg daily oral gavage. The protocol:
as §1, §2
For IHC, formalin-fixed and paraffin-embedded tissue sections or frozen sections were incubated overnight at 4. C with anti-bodies against CD3, F4/80, CD4, CD8, CD11c, Collagen IV, diluted in DAKO antibody dilution buffer (DAKO), and then for 1 h at room temperature with horseradish peroxidase (HRP)-conjugated second antibodies (DAKO) in the same buffer; in the case of the HRP-conjugated antibodies, DAB (DAKO) was also added. Hematoxylin was used to counterstain nuclei. Positive cells was counted at a magnification of 400× in 20 consecutive glomeruli or in 20 randomly selected fields of the tubule interstitial compartment in the cortical area by Pax-It quantitative image analysis software.

Assay [8] has the same test system. Briefly: Renal histopathology (H&E) in IgAN mice. It counts as in vivo. The following applies: day 28, 60 mg/kg daily oral gavage, vs disease control (FIG. 3). The protocol: as §1, §2
Body weight was measured weekly. Urine samples were collected in metabolic cages weekly and urine protein was determined. […] The percentage of glomeruli showing proliferation, neutrophil infiltration, sclerosis, or periglomerular inflammation was determined by counting 50 randomly sampled glomeruli by light microscopy at a magnification of 400×.

Where [9] appears, read: day 14, 60 mg/kg daily oral gavage, between disease control, IgAN+LCHK168 and normal control.

On to `CC(C)=CCC[C@](C)(O[C@@H]1OC(CO)[C@@H](O)[C@@H](O)C1O)[C@H]1CC[C@]2(C)C1[C@H](O)CC1[C@@]3(C)CC[C@H](O)C(C)(C)C3CC[C@]12C` (stereo partly drawn) [LCHK168, 20-O-β-D-glucopyranosyl-20(S)-protopanaxadiol], for which the “urine protein levels (ratio of urine protein to creatinine)” value in assay [1] (IgAN mice, 60 mg/kg daily oral gavage, day 14 to day 28, vs vehicle-treated disease control (FIG. 1)) is on record as “markedly inhibited”. Further, the “proteinuria compared to normal untreated controls” value in assay [1] (IgAN mice, 60 mg/kg daily oral gavage, vs normal untreated controls (FIG. 1)) is listed as “mild proteinuria”. Also, the “serum levels of BUN” value in assay [1] (setting [9]) was “no significant difference”; in assay [1] (day 28, 60 mg/kg daily oral gavage, vs disease control (FIG. 2A)), “much better renal function”. Besides, the “serum levels of Cr” value is listed as “no significant difference” in assay [1] (setting [9]) and “much better renal function” in assay [1] (day 28, 60 mg/kg daily oral gavage, vs disease control (FIG. 2B)). Also, in assay [2] (day 14, 60 mg/kg daily oral gavage), the “increase in renal tissues ROS levels” value is listed as “greatly inhibited”. The “increase in ROS levels in renal tissues” value in assay [2] (day 28, 60 mg/kg daily oral gavage) is given as “substantially inhibited”. The “memory CD4+ T cells in splenocytes” value in assay [3] is “significant reduction”. The “expression level of CD40 in DCs” value in assay [4] is listed as “significantly lowered”. For the same compound, the “expression level of CD80 in DCs” value in assay [4] is “significantly lowered”. In addition, the “expression level of CD86 in DCs” value in assay [4] is reported as “significantly lowered”. In assay [5], the “NLRP3 protein expression in DCs” value is “significantly decreased”. Moreover, the “TLR2 mRNA levels in the kidney (relative to GAPDH)” value is “not statistically significant” in assay [6] (14 days, difference vs IgAN control mice (FIG. 12)) and “significantly lower” in assay [6] (28 days, vs IgAN control mice (FIG. 12)). Moreover, the “renal infiltration of CD3+ T cells” value in assay [7] (vs disease control (FIG. 4)) is reported as “significantly decreased”. For the same compound, the “renal infiltration of F4/80+ monocytes/macrophages” value in assay [7] (vs disease control (FIG. 5)) is on record as “significantly decreased”. Moreover, in assay [7] (vs disease control (FIG. 6)), the “renal infiltration of CD4+ T cells” value was “significantly decreased”. In assay [7] (vs disease control (FIG. 7)), the “renal infiltration of CD8+ T cells” value is listed as “significantly decreased”. For the same compound, the “renal infiltration of CD11c+ dendritic cells” value in assay [7] (vs disease control (FIG. 8)) is listed as “significantly decreased”. In addition, the “renal fibrosis (Collagen IV staining)” value in assay [7] (vs disease control (FIG. 9)) is given as “significantly decreased”. Further, the “renal lesion (proliferation, crescents, sclerosis, neutrophil infiltration, periglomerular leukocyte infiltration, tubular atrophy)” value in assay [8] is reported as “significantly inhibited”.
